According to patent publication US20200405697A1, “Antitumor Agent” (Taiho Pharmaceutical Co., Ltd, priority 2017, published 2020):

Molecular target: T1, human RNR (histidine tagged human M1 and human M2 proteins) (Homo sapiens, UniProt P23921)
T1 construct: made in house; host or cells: Escherichia coli
T1 sequence (P23921 1-792): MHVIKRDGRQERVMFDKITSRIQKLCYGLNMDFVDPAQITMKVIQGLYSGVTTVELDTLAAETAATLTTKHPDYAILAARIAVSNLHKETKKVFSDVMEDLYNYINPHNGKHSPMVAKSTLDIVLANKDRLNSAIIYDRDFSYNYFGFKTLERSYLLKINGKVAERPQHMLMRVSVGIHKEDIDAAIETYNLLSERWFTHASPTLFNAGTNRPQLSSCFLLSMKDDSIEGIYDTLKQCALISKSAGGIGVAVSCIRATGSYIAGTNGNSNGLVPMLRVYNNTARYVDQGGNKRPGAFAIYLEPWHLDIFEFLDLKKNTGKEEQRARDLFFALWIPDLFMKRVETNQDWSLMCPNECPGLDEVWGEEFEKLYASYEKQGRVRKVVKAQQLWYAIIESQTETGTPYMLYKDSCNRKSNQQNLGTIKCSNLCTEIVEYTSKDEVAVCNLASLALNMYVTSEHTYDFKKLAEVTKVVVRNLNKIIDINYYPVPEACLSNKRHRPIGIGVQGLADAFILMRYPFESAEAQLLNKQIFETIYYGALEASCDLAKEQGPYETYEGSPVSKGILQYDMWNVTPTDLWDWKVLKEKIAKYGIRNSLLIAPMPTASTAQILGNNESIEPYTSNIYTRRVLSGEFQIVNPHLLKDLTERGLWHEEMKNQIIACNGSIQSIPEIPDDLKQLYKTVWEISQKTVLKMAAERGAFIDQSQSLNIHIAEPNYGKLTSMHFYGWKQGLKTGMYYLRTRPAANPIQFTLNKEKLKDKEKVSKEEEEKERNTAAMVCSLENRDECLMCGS
Assay: Human RNR inhibition effect (dCDP formation from CDP)
Format: biochemical
Settings: 10 μM CDP, 37° C. for 30 minutes, read-out: RNR inhibitory activity IC50
How it was run: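 His-tagged human M1 (isoform 1) and N-terminal 59-aa-truncated M2 (isoform 2), E. coli-expressed, Ni-purified, preincubated 20 min with compound (1% DMSO). Reaction with 10 μM CDP, 2 mM ATP, 0.24 mM NADPH, 6 mM DTT, 4 mM Mg acetate, 100 mM KCl, 50 mM HEPES pH 7.2, 30 min at 37° C. dCDP formed quantified by reverse-phase HPLC after heat stop.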

Row | SMILES | IC50
1 | Cc1ccc(F)c([C@@H](C)[C@H](NS(=O)(=O)c2c(F)cccc2F)c2n[nH]c(=O)o2)c1C [Example 110, 2,6-difluoro-N-((1S,2R)-2-(6-fluoro-2,3-dimethylphenyl)-1-(5-oxo-4,5-dihydro-1,3,4-oxadiazol-2-yl)propyl)benzenesulfonamide] | 960 nM
2 | Cc1ccc(F)c([C@@H](C)[C@H](NS(=O)(=O)c2c(F)cc(Cl)cc2F)c2n[nH]c(=O)o2)c1C [Example 111, 4-chloro-2,6-difluoro-N-((1S,2R)-2-(6-fluoro-2,3-dimethylphenyl)-1-(5-oxo-4,5-dihydro-1,3,4-oxadiazol-2-yl)propyl)benzenesulfonamide] | 270 nM
3 | Cc1ccc(F)c([C@@H](C)[C@H](NS(=O)(=O)c2ccc(Cl)c(C(=O)N3CCC4(CCC4)C3)n2)c2n[nH]c(=O)o2)c1C [Example 115, 5-chloro-N-((1S,2R)-2-(6-fluoro-2,3-dimethylphenyl)-1-(5-oxo-4,5-dihydro-1,3,4-oxadiazol-2-yl)propyl)-6-(6-azaspiro[3.4]octane-6-carbonyl)pyridine-2-sulfonamide] | 180 nM
4 | Cc1ccc(F)c([C@@H](C)[C@H](NS(=O)(=O)c2ccc(Cl)c(C(=O)N3C4CCC3COC4)n2)c2n[nH]c(=O)o2)c1C [Example 116, 6-(3-oxa-8-azabicyclo[3.2.1]octane-8-carbonyl)-5-chloro-N-((1S,2R)-2-(6-fluoro-2,3-dimethylphenyl)-1-(5-oxo-4,5-dihydro-1,3,4-oxadiazol-2-yl)propyl)pyridine-2-sulfonamide] | 70 nM
5 | COC(=O)c1cc(Cl)cnc1S(=O)(=O)N[C@H](c1n[nH]c(=O)o1)[C@H](C)c1c(F)ccc(C)c1C [Example 118, methyl 5-chloro-2-(N-((1S,2R)-2-(6-fluoro-2,3-dimethylphenyl)-1-(5-oxo-4,5-dihydro-1,3,4-oxadiazol-2-yl)propyl)sulfamoyl)nicotinate] | 340 nM
6 | COC(=O)c1cc(Br)cnc1S(=O)(=O)N[C@H](c1n[nH]c(=O)o1)[C@H](C)c1c(F)ccc(C)c1C [Example 119, methyl 5-bromo-2-(N-((1S,2R)-2-(6-fluoro-2,3-dimethylphenyl)-1-(5-oxo-4,5-dihydro-1,3,4-oxadiazol-2-yl)propyl)sulfamoyl)nicotinate] | 450 nM
7 | COc1c(S(=O)(=O)N[C@H](c2n[nH]c(=O)o2)[C@H](C)c2c(F)ccc(C)c2C)ncc(Cl)c1C(C)OC(C)=O (stereo partly drawn) [Example 120, 1-(5-chloro-2-(N-((1S,2R)-2-(6-fluoro-2,3-dimethylphenyl)-1-(5-oxo-4,5-dihydro-1,3,4-oxadiazol-2-yl)propyl)sulfamoyl)-3-methoxypyridin-4-yl)ethylacetate] | 430 nM
8 | COc1cc(Br)ccc1S(=O)(=O)N[C@H](c1n[nH]c(=O)o1)[C@H](C)c1cccc2c1CCC2 [Example 137, 4-bromo-N-((1S,2R)-2-(2,3-dihydro-1H-inden-4-yl)-1-(5-oxo-4,5-dihydro-1,3,4-oxadiazol-2-yl)propyl)-2-methoxybenzenesulfonamide] | 590 nM
9 | CC(=O)OC(C)c1nc(S(=O)(=O)N[C@H](c2n[nH]c(=O)o2)[C@H](C)c2cccc3c2CCC3)ccc1Cl (stereo partly drawn) [Example 142, 1-(3-chloro-6-(N-((1S,2R)-2-(2,3-dihydro-1H-inden-4-yl)-1-(5-oxo-4,5-dihydro-1,3,4-oxadiazol-2-yl)propyl)sulfamoyl)pyridin-2-yl)ethylacetate] | 210 nM
10 | COc1c(S(=O)(=O)N[C@H](c2n[nH]c(=O)o2)[C@H](C)c2c(F)ccc(C)c2C)ccc(Cl)c1C(C)OC(C)=O (stereo partly drawn) [Example 144, 1-(6-chloro-3-(N-((1S,2R)-2-(6-fluoro-2,3-dimethylphenyl)-1-(5-oxo-4,5-dihydro-1,3,4-oxadiazol-2-yl)propyl)sulfamoyl)-2-methoxyphenyl)ethyl acetate] | 170 nM
11 | Cc1ccc(F)c([C@@H](C)[C@H](NS(=O)(=O)c2ccc(Cl)cc2OCC(F)F)c2n[nH]c(=O)o2)c1C [Example 145, 4-chloro-2-(2,2-difluoroethoxy)-N-((1S,2R)-2-(6-fluoro-2,3-dimethylphenyl)-1-(5-oxo-4,5-dihydro-1,3,4-oxadiazol-2-yl)propyl)benzenesulfonamide] | 440 nM
12 | Cc1ccc(F)c([C@@H](C)[C@H](NS(=O)(=O)c2ccc(Cl)cc2OC(F)F)c2n[nH]c(=O)o2)c1C [Example 146, 4-chloro-2-(difluoromethoxy)-N-((1S,2R)-2-(6-fluoro-2,3-dimethylphenyl)-1-(5-oxo-4,5-dihydro-1,3,4-oxadiazol-2-yl)propyl)benzenesulfonamide] | 260 nM
13 | CC(=O)c1cc(Cl)ccc1S(=O)(=O)N[C@H](c1n[nH]c(=O)o1)[C@H](C)c1c(F)ccc(C)c1C [Example 147, 2-acetyl-4-chloro-N-((1S,2R)-2-(6-fluoro-2,3-dimethylphenyl)-1-(5-oxo-4,5-dihydro-1,3,4-oxadiazol-2-yl)propyl)benzenesulfonamide] | 270 nM
14 | Cc1ccc(S(=O)(=O)N[C@H](c2n[nH]c(=O)o2)[C@H](C)c2c(F)ccc(C)c2C)cc1 [Example 151, N-((1S,2R)-2-(6-fluoro-2,3-dimethylphenyl)-1-(5-oxo-4,5-dihydro-1,3,4-oxadiazol-2-yl)propyl)-4-methylbenzenesulfonamide] | 410 nM

Further molecules by falling IC50, results first:

Row | IC50 | SMILES
15 | 150 nM | COc1cc(Cl)cnc1S(=O)(=O)N[C@H](c1n[nH]c(=O)o1)[C@H](C)c1c(F)ccc(C)c1C [Example 112, 5-chloro-N-((1S,2R)-2-(6-fluoro-2,3-dimethylphenyl)-1-(5-oxo-4,5-dihydro-1,3,4-oxadiazol-2-yl)propyl)-3-methoxypyridine-2-sulfonamide]
16 | 110 nM | CC(=O)OC1(C(F)(F)F)CCOc2c(S(=O)(=O)N[C@H](c3n[nH]c(=O)o3)[C@H](C)c3c(F)ccc(C)c3C)ccc(Cl)c21 (stereo partly drawn) [Example 123, 5-chloro-8-(N-((1S,2R)-2-(6-fluoro-2,3-dimethylphenyl)-1-(5-oxo-4,5-dihydro-1,3,4-oxadiazol-2-yl)propyl)sulfamoyl)-4-(trifluoromethyl)chroman-4-ylacetate]
17 | 100 nM | [2H]C([2H])([2H])C1(OC(C)=O)CCOc2c(S(=O)(=O)N[C@H](c3n[nH]c(=O)o3)[C@H](C)c3c(F)ccc(C)c3C)ccc(Cl)c21 (stereo partly drawn) [Example 129, 5-Chloro-8-(N-((1S,2R)-2-(6-fluoro-2,3-dimethylphenyl)-1-(5-oxo-4,5-dihydro-1,3,4-oxadiazol-2-yl)propyl)sulfamoyl)-4-methyl-d3-chroman-4-yl Acetate]
18 | 100 nM | COc1nc(Cl)ccc1S(=O)(=O)N[C@H](c1n[nH]c(=O)o1)[C@H](C)c1c(F)ccc(C)c1C [Example 148, 6-chloro-N-((1S,2R)-2-(6-fluoro-2,3-dimethylphenyl)-1-(5-oxo-4,5-dihydro-1,3,4-oxadiazol-2-yl)propyl)-2-methoxypyridine-3-sulfonamide]
19 | 90 nM | Cc1c(Br)ccc(F)c1[C@@H](C)[C@H](NS(=O)(=O)c1ccc(Cl)c2c1OCCC2=O)c1n[nH]c(=O)o1 [Example 124, N-((1S,2R)-2-(3-bromo-6-fluoro-2-methylphenyl)-1-(5-oxo-4,5-dihydro-1,3,4-oxadiazol-2-yl)propyl)-5-chloro-4-oxochroman-8-sulfonamide]
20 | 60 nM | COC(=O)c1nc(S(=O)(=O)N[C@H](c2n[nH]c(=O)o2)[C@H](C)c2c(F)ccc(C)c2C)ccc1Cl [Example 109, methyl 3-chloro-6-(N-((1S,2R)-2-(6-fluoro-2,3-dimethylphenyl)-1-(5-oxo-4,5-dihydro-1,3,4-oxadiazol-2-yl)propyl)sulfamoyl)picolinate]
21 | 60 nM | Cc1ccc(F)c([C@@H](C)[C@H](NS(=O)(=O)c2ccc(Cl)c(C(=O)N3CCOCC3)n2)c2n[nH]c(=O)o2)c1C [Example 113, 5-chloro-N-((1S,2R)-2-(6-fluoro-2,3-dimethylphenyl)-1-(5-oxo-4,5-dihydro-1,3,4-oxadiazol-2-yl)propyl)-6-(moipholine4-carbonyl)pyridine-2-sulfonamide]
22 | 60 nM | Cc1ccc(F)c([C@@H](C)[C@H](NS(=O)(=O)c2ccc(Cl)c(C(=O)N3CCCC3)n2)c2n[nH]c(=O)o2)c1C [Example 114, 5-chloro-N-((1S,2R)-2-(6-fluoro-2,3-dimethylphenyl)-1-(5-oxo-4,5-dihydro-1,3,4-oxadiazol-2-yl)propyl)-6-(pyrrolidine-1-carbonyl)pyridine-2-sulfonamide]
23 | 30 nM | Cc1ccc(F)c([C@@H](C)[C@H](NS(=O)(=O)c2ccc(Cl)c(C(=O)N3CC4CCC(C3)O4)n2)c2n[nH]c(=O)o2)c1C [Example 117, 6-(8-oxa-3-azabicyclo[3.2.1]octane-3-carbonyl)-5-chloro-N-((1S,2R)-2-(6-fluoro-2,3-dimethylphenyl)-1-(5-oxo-4,5-dihydro-1,3,4-oxadiazol-2-yl)propyl)pyridine-2-sulfonamide]
